Results: ChEMBL document CHEMBL5346892, “Design and synthesis of benzochromene derivatives as AcrB inhibitors for the reversal of bacterial multidrug resistance” (Eur J Med Chem, 2023)
Activity calls are given as the source filed them. The rule behind the calls is not given here.

Assays:
Escherichia coli [1] = experiment: Synergistic antibacterial activity against wild type Escherichia coli BW25113 assessed as minocycline MIC at 128 microg/ml incubated for 18 hrs by broth dilution assay; type: functional; conditions: dose 128 µg/ml
Escherichia coli [2] = experiment: Synergistic antibacterial activity against wild type Escherichia coli BW25113 assessed as erythromycin MIC at 8 microg/ml incubated for 18 hrs by broth dilution assay; type: functional; conditions: dose 8 µg/ml
Escherichia coli [3] = experiment: Synergistic antibacterial activity against wild type Escherichia coli BW25113 assessed as levofloxacin MIC at 64 microg/ml incubated for 18 hrs by broth dilution assay; type: functional; conditions: dose 64 µg/ml
Escherichia coli [4] = experiment: Synergistic antibacterial activity against wild type Escherichia coli BW25113 assessed as minocycline MIC at 64 microg/ml incubated for 18 hrs in presence of colistin by broth dilution assay; type: functional; conditions: dose 64 µg/ml
Escherichia coli [5] = experiment: Synergistic antibacterial activity against wild type Escherichia coli BW25113 assessed as levofloxacin MIC at 64 microg/ml incubated for 18 hrs in presence of colistin by broth dilution assay; type: functional; conditions: dose 64 µg/ml
[6] = Hemolytic activity in mouse RBC assessed as hemolysis at 4 to 256 microg/ml incubated for 1 hr by microplate reader analysis; type: toxicity, cell-based, Erythrocyte; conditions: mouse red blood cells (erythrocytes), at 4 to 256 µg/mL, dose 4-256 µg/ml, read-out: Activity
Escherichia coli [7] = experiment: Synergistic antibacterial activity against wild type Escherichia coli BW25113 assessed as erythromycin MIC at 64 microg/ml incubated for 18 hrs in presence of colistin by broth dilution assay; type: functional; conditions: dose 64 µg/ml
Escherichia coli [8] = experiment: Synergistic antibacterial activity against wild type Escherichia coli BW25113 assessed as minocycline MIC at 16 microg/ml incubated for 18 hrs in presence of colistin by broth dilution assay; type: functional; conditions: dose 16 µg/ml
Escherichia coli [9] = experiment: Synergistic antibacterial activity against wild type Escherichia coli BW25113 assessed as levofloxacin MIC at 32 microg/ml incubated for 18 hrs in presence of colistin by broth dilution assay; type: functional; conditions: dose 32 µg/ml
Escherichia coli [10] = experiment: Synergistic antibacterial activity against wild type Escherichia coli BW25113 assessed as minocycline MIC at 32 microg/ml incubated for 18 hrs by broth dilution assay; type: functional; conditions: dose 32 µg/ml
Escherichia coli [11] = experiment: Synergistic antibacterial activity against wild type Escherichia coli BW25113 assessed as minocycline MIC at 16 microg/ml incubated for 18 hrs by broth dilution assay; type: functional; conditions: dose 16 µg/ml
Escherichia coli [12] = experiment: Synergistic antibacterial activity against wild type Escherichia coli BW25113 assessed as levofloxacin MIC at 8 microg/ml incubated for 18 hrs by broth dilution assay; type: functional; conditions: dose 8 µg/ml
Escherichia coli [13] = experiment: Synergistic antibacterial activity against wild type Escherichia coli BW25113 assessed as erythromycin MIC at 8 microg/ml incubated for 18 hrs in presence of colistin by broth dilution assay; type: functional; conditions: dose 8 µg/ml
Escherichia coli [14] = experiment: Synergistic antibacterial activity against wild type Escherichia coli BW25113 assessed as levofloxacin MIC at 8 microg/ml incubated for 18 hrs in presence of colistin by broth dilution assay; type: functional; conditions: dose 8 µg/ml
Escherichia coli [15] = experiment: Synergistic antibacterial activity against wild type Escherichia coli BW25113 assessed as minocycline MIC at 8 microg/ml incubated for 18 hrs in presence of colistin by broth dilution assay; type: functional; conditions: dose 8 µg/ml
Escherichia coli [16] = experiment: Synergistic antibacterial activity against wild type Escherichia coli BW25113 assessed as minocycline MIC at 64 microg/ml incubated for 18 hrs by broth dilution assay; type: functional; conditions: dose 64 µg/ml
Escherichia coli [17] = experiment: Synergistic antibacterial activity against wild type Escherichia coli BW25113 assessed as levofloxacin MIC at 16 microg/ml incubated for 18 hrs by broth dilution assay; type: functional; conditions: dose 16 µg/ml
Escherichia coli [18] = experiment: Synergistic antibacterial activity against wild type Escherichia coli BW25113 assessed as erythromycin MIC at 16 microg/ml incubated for 18 hrs in presence of colistin by broth dilution assay; type: functional; conditions: dose 16 µg/ml
Escherichia coli [19] = experiment: Synergistic antibacterial activity against wild type Escherichia coli BW25113 assessed as erythromycin MIC at 32 microg/ml incubated for 18 hrs in presence of colistin by broth dilution assay; type: functional; conditions: dose 32 µg/ml
[20] = Toxicity in Caenorhabditis elegans assessed as survival rate at 128 microg/ml measured after 72 hrs by light microscopic analysis; conditions: at 128 µg/mL
Escherichia coli [21] = experiment: Synergistic antibacterial activity against wild type Escherichia coli BW25113 assessed as levofloxacin MIC at 128 microg/ml incubated for 18 hrs by broth dilution assay; type: functional; conditions: dose 128 µg/ml
Escherichia coli [22] = experiment: Synergistic antibacterial activity against wild type Escherichia coli BW25113 assessed as minocycline MIC at 32 microg/ml incubated for 18 hrs in presence of colistin by broth dilution assay; type: functional; conditions: dose 32 µg/ml
Escherichia coli [23] = experiment: Synergistic antibacterial activity against wild type Escherichia coli BW25113 assessed as levofloxacin MIC at 16 microg/ml incubated for 18 hrs in presence of colistin by broth dilution assay; type: functional; conditions: dose 16 µg/ml
Escherichia coli [24] = experiment: Synergistic antibacterial activity against wild type Escherichia coli BW25113 assessed as erythromycin MIC at 32 microg/ml incubated for 18 hrs by broth dilution assay; type: functional; conditions: dose 32 µg/ml
Escherichia coli [25] = experiment: Synergistic antibacterial activity against wild type Escherichia coli BW25113 assessed as levofloxacin MIC at 32 microg/ml incubated for 18 hrs by broth dilution assay; type: functional; conditions: dose 32 µg/ml
Escherichia coli [26] = experiment: Synergistic antibacterial activity against wild type Escherichia coli BW25113 assessed as erythromycin MIC at 16 microg/ml incubated for 18 hrs by broth dilution assay; type: functional; conditions: dose 16 µg/ml
Cell membrane = experiment: Induction of inner membrane permeabilization in Escherichia coli BW25113 assessed as increase in fluorescence intensity at 64 microg/ml incubated for 10 mins by DiOC2 dye based fluorimeter analysis; type: subcellular; conditions: dose 64.0 µg/ml
Escherichia coli [27] = experiment: Synergistic antibacterial activity against wild type Escherichia coli BW25113 assessed as minocycline MIC at 8 microg/ml incubated for 18 hrs by broth dilution assay; type: functional; conditions: dose 8 µg/ml

## CC1(C)CCc2c(C(=O)N3CCOCC3)cc3c(OCCCOc4cccc(C(=O)O)c4)cccc3c2O1
Escherichia coli [1]
  MIC: 0.5 µg/mL
Escherichia coli [2]
  MIC: 32 µg/mL
Escherichia coli [3]
  MIC: 0.016 µg/mL
Escherichia coli [4]
  MIC: 0.5 µg/mL
Escherichia coli [5]
  MIC: 0.008 µg/mL
[6]
  hemolysis at 1 h: < 5%
Escherichia coli [7]
  MIC: 4 µg/mL
Escherichia coli [8]
  MIC: 0.5 µg/mL
Escherichia coli [9]
  MIC: 0.016 µg/mL
Escherichia coli [10]
  MIC: 1 µg/mL
Escherichia coli [11]
  MIC: 2 µg/mL
Escherichia coli [12]
  MIC: 0.016 µg/mL
Escherichia coli [13]
  MIC: 8 µg/mL
Escherichia coli [14]
  MIC: 0.016 µg/mL
Escherichia coli [15]
  MIC: 0.5 µg/mL
Escherichia coli [16]
  MIC: 1 µg/mL
Escherichia coli [17]
  MIC: 0.016 µg/mL
Escherichia coli [18]
  MIC: 4 µg/mL
Escherichia coli [19]
  MIC: 4 µg/mL
[20]
  survival at 72 h, 128 microg/ml: 90%
Escherichia coli [21]
  MIC: 0.016 µg/mL
Escherichia coli [22]
  MIC: 0.5 µg/mL
Escherichia coli [23]
  MIC: 0.016 µg/mL
Escherichia coli [24]
  MIC: 32 µg/mL
Escherichia coli [25]
  MIC: 0.016 µg/mL
Escherichia coli [26]
  MIC: 32 µg/mL

## CC1(C)CCc2c(C(=O)N3CCOCC3)cc3c(OCCN4CCN(c5ccccc5)CC4)cccc3c2O1
Escherichia coli [1]
  MIC: 1 µg/mL
Escherichia coli [2]
  MIC: 32 µg/mL
Escherichia coli [3]
  MIC: 0.016 µg/mL
Escherichia coli [5]
  MIC: 0.032 µg/mL
[6]
  hemolysis at 1 h: < 5%
Cell membrane
  Activity: inactive
Escherichia coli [9]
  MIC: 0.032 µg/mL
Escherichia coli [10]
  MIC: 2 µg/mL
Escherichia coli [11]
  MIC: 2 µg/mL
Escherichia coli [12]
  MIC: 0.032 µg/mL
Escherichia coli [13]
  MIC: 4 µg/mL
Escherichia coli [14]
  MIC: 0.032 µg/mL
Escherichia coli [15]
  MIC: 0.5 µg/mL
Escherichia coli [16]
  MIC: 2 µg/mL
Escherichia coli [17]
  MIC: 0.016 µg/mL
[20]
  survival at 72 h, 128 microg/ml: 90%
Escherichia coli [21]
  MIC: 0.016 µg/mL
Escherichia coli [24]
  MIC: 32 µg/mL
Escherichia coli [25]
  MIC: 0.016 µg/mL
Escherichia coli [27]
  MIC: 2 µg/mL
Escherichia coli [26]
  MIC: 32 µg/mL

## CC1(C)CCc2c(C(=O)N3CCOCC3)cc3c(OCCSc4ccc([N+](=O)[O-])cc4)cccc3c2O1
Escherichia coli [1]
  MIC: 2 µg/mL
Escherichia coli [2]
  MIC: 16 µg/mL
Escherichia coli [3]
  MIC: 0.016 µg/mL
Escherichia coli [4]
  MIC: 0.5 µg/mL
Escherichia coli [5]
  MIC: 0.032 µg/mL
[6]
  hemolysis at 1 h: < 5%
Escherichia coli [7]
  MIC: 4 µg/mL
Escherichia coli [8]
  MIC: 1 µg/mL
Cell membrane
  Activity: inactive
Escherichia coli [9]
  MIC: 0.032 µg/mL
Escherichia coli [10]
  MIC: 2 µg/mL
Escherichia coli [11]
  MIC: 2 µg/mL
Escherichia coli [12]
  MIC: 0.016 µg/mL
Escherichia coli [13]
  MIC: 8 µg/mL
Escherichia coli [14]
  MIC: 0.032 µg/mL
Escherichia coli [15]
  MIC: 1 µg/mL
Escherichia coli [16]
  MIC: 1 µg/mL
Escherichia coli [17]
  MIC: 0.032 µg/mL
Escherichia coli [18]
  MIC: 8 µg/mL
Escherichia coli [19]
  MIC: 4 µg/mL
[20]
  survival at 72 h, 128 microg/ml: 90%
Escherichia coli [21]
  MIC: 0.016 µg/mL
Escherichia coli [22]
  MIC: 1 µg/mL
Escherichia coli [23]
  MIC: 0.032 µg/mL
Escherichia coli [24]
  MIC: 16 µg/mL
Escherichia coli [25]
  MIC: 0.016 µg/mL
Escherichia coli [27]
  MIC: 2 µg/mL
Escherichia coli [26]
  MIC: 16 µg/mL

## COc1ccc(OCCCOc2cccc3c4c(c(C(=O)N5CCOCC5)cc23)CCC(C)(C)O4)cc1
Escherichia coli [1]
  MIC: 1 µg/mL
Escherichia coli [2]
  MIC: 32 µg/mL
Escherichia coli [3]
  MIC: 0.032 µg/mL
Escherichia coli [4]
  MIC: 0.25 µg/mL
Escherichia coli [5]
  MIC: 0.032 µg/mL
[6]
  hemolysis at 1 h: < 5%
Escherichia coli [7]
  MIC: 16 µg/mL
Escherichia coli [8]
  MIC: 0.5 µg/mL
Cell membrane
  Activity: inactive
Escherichia coli [9]
  MIC: 0.032 µg/mL
Escherichia coli [10]
  MIC: 2 µg/mL
Escherichia coli [11]
  MIC: 2 µg/mL
Escherichia coli [12]
  MIC: 0.032 µg/mL
Escherichia coli [13]
  MIC: 16 µg/mL
Escherichia coli [14]
  MIC: 0.016 µg/mL
Escherichia coli [15]
  MIC: 0.5 µg/mL
Escherichia coli [16]
  MIC: 1 µg/mL
Escherichia coli [17]
  MIC: 0.032 µg/mL
Escherichia coli [18]
  MIC: 16 µg/mL
Escherichia coli [19]
  MIC: 16 µg/mL
[20]
  survival at 72 h, 128 microg/ml: 90%
Escherichia coli [21]
  MIC: 0.032 µg/mL
Escherichia coli [22]
  MIC: 0.5 µg/mL
Escherichia coli [23]
  MIC: 0.016 µg/mL
Escherichia coli [24]
  MIC: 32 µg/mL
Escherichia coli [25]
  MIC: 0.032 µg/mL
Escherichia coli [27]
  MIC: 2 µg/mL
Escherichia coli [26]
  MIC: 32 µg/mL
